Test results taken from article PMC6724510 (Molecular Biology of the Cell, 2019).

Molecular target: T1, Spf1p (Saccharomyces cerevisiae, UniProt P39986)
T1 sequence (P39986 1-1215): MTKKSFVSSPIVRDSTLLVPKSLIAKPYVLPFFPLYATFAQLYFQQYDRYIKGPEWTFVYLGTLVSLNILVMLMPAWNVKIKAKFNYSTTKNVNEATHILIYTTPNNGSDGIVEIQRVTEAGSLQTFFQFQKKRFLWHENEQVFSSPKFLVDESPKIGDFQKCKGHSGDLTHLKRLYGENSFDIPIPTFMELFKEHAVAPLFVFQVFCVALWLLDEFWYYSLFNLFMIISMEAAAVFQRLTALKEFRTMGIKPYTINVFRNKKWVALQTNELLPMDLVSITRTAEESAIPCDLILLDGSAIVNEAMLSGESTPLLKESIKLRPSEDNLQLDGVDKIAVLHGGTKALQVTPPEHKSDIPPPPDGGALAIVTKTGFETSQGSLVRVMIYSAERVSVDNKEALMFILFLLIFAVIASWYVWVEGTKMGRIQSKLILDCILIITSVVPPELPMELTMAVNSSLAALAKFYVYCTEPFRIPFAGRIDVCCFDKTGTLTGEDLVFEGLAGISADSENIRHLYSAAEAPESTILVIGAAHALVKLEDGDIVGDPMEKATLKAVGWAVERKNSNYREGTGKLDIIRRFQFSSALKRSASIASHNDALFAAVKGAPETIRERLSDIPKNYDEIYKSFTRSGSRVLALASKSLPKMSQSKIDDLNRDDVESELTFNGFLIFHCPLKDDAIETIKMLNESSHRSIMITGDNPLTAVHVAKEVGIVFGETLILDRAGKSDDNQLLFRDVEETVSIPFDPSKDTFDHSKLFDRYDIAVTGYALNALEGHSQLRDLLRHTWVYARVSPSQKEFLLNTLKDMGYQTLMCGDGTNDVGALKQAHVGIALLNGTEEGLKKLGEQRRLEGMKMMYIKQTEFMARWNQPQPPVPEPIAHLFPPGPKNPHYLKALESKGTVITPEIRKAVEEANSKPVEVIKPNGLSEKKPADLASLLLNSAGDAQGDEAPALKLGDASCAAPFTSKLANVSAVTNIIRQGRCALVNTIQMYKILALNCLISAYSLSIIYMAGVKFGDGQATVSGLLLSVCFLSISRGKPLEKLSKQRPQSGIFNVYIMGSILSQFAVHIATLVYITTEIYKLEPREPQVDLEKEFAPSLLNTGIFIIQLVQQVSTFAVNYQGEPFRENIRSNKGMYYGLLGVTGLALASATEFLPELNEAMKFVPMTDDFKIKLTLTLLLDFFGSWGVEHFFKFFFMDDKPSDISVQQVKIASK
Experiment: inhibition of ATP hydrolysis by purified Spf1p
Assay type: biochemical

## [O]=[V]([OH])([OH])[OH] [vanadate]
  Ki: 9.8 ± 2.4 µM
